Assay results published in patent US7850994B1, “Xerogel films for the controlled release of pharmaceutically active molecules” (The Trustees of the University of Pennsylvania, priority 2005, dated 2010).
“And” between values parts separate entries of the source, which are not always exact repeats. Identical values can stand only once.

Tests used:
[1] = Stability / precipitation of vancomycin in sols; assay type: physicochemical; details: water-free sol prepared as described by Böttcher et al
Source text: Vancomycin is a water-soluble drug. Sols with nominal vancomycin (Vancomycin-HCL, NovaPlus) concentrations of 5, 10, and 20% by weight were made by adding corresponding amounts of vancomycin dissolved in DI water to the sol. Although sols with various vancomycin concentrations were stable for several days, only freshly prepared mixtures were used for the application of the coatings.
Modification of the process of sol preparation was required to avoid the precipitation. It was achieved by adding water at the TEOS hydrolysis step. […] The sols with vancomycin concentrations varying from 3 to 30% by weight were stable over several days. The sols of modified compositions were successfully used for depositing vancomycin-loaded thin xerogel films to a Ti alloy substrate.

Staphylococcus aureus = details: against Staphylococcus aureus; cited from earlier work

## CN[C@H](CC(C)C)C(=O)N[C@H]1C(=O)N[C@@H](CC(N)=O)C(=O)N[C@H]2C(=O)N[C@H]3C(=O)N[C@H](C(=O)N[C@H](C(=O)O)c4cc(O)cc(O)c4-c4cc3ccc4O)[C@H](O)c3ccc(c(Cl)c3)Oc3cc2cc(c3O[C@@H]2O[C@H](CO)[C@@H](O)[C@H](O)[C@H]2O[C@H]2C[C@](C)(N)[C@H](O)[C@H](C)O2)Oc2ccc(cc2Cl)[C@H]1O [vancomycin]
[1]
  precipitation on adding a water solution of vancomycin to a sol: immediate precipitation of the drug in the sol
Staphylococcus aureus
  Minimal Inhibitory Concentration (MIC): 1.5 to 3 µg/mL and 1.5 to 3.12 µg/mL
